Drawing on patent publication US20220259215A1, “PYRROLOPYRAZOLE DERIVATIVES, PREPARATION METHOD THEREOF AND APPLICATION THEREOF IN MEDICINE” (SHANGHAI MEDICILON INC., priority 2019, published 2022), this text covers IC50 for seven compounds.

T1 sequence (P27112 whole entry): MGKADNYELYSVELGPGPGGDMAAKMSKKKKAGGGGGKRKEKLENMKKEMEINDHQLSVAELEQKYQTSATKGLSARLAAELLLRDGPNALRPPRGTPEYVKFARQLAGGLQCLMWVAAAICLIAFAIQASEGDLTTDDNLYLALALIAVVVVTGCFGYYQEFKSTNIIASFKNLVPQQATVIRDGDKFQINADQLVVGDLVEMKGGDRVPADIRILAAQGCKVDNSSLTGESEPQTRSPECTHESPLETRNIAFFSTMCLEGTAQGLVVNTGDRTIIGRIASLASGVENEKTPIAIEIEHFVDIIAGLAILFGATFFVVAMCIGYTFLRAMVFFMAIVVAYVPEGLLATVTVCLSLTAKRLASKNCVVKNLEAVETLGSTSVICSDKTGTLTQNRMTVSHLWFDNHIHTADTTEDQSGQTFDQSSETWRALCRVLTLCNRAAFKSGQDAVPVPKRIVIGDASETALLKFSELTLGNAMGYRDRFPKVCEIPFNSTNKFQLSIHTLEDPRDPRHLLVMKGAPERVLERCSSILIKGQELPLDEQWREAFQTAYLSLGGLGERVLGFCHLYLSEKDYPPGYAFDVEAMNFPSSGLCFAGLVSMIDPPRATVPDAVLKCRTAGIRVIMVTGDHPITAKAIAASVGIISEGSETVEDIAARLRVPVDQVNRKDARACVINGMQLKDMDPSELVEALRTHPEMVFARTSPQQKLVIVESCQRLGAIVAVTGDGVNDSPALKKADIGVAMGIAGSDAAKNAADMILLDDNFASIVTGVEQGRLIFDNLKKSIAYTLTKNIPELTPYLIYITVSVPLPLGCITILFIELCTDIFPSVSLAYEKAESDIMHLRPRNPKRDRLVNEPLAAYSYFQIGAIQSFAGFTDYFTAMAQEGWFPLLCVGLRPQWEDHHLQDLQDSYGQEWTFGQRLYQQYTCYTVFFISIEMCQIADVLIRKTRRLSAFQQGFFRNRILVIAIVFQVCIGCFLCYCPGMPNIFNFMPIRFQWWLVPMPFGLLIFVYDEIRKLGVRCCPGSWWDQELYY
T1 sequence (P18597 whole entry partner): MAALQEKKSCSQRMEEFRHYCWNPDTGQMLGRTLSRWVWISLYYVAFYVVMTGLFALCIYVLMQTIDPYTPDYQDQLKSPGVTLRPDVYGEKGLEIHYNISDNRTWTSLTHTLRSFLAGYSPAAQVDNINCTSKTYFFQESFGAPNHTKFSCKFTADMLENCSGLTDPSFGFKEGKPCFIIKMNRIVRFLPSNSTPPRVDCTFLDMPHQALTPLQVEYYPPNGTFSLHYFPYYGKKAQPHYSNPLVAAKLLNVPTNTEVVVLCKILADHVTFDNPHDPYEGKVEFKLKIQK

The experiment addresses T1, H+/K+ATPase (Oryctolagus cuniculus, UniProt P27112).
T1 construct: The stomach tissue of the rabbit was separated; from tissue; host or cells: rabbit stomach (fundus mucosa), membrane fraction obtained by differential and Ficoll centrifugation
The experiment in a line: Determination of compounds' inhibition of H+/K+ATPase enzyme activity (malachite green, OD 620 nm). To be noted: H+/K+ATPase extracted from rabbit stomach mucosa; 500 μM ATP, pH 6.5, 37° C. In kind it is biochemical. An excerpt: Test Example: Determination of Compounds' Inhibition of H+/K+ATPase Enzyme Activity
The following experiment is used to determine the inhibitory effect of the compound of the present invention on the H+/K+ATPase enzyme activity.
1. Experimental materials
Plate reader: SpectraMax M5(MD).
Malachite Green (Sigma Aldrich, 213020-25G).
Ammonium molybdate (Sigma Aldrich, 277908-20G).
ATP (Sigma Aldrich, A1852-1VL).
Enzyme working solution: titrating the enzyme, diluting the enzyme with buffer solution 1, and taking 5 μl of the diluted solution into 50 μl reaction system.
ATP solution: 100 mM ATP was diluted to 5 mM with no K+ buffer, and 5 μl of the diluted solution was added to the 50 μl reaction system, that is, the final concentration of ATP was 500 μM.
MLG color development liquid: 0.12% MLG, 7.5% ammonium molybdate, 11% Tween-20 was mixed as 100:25:2, and adding 15 μl of the mixture into each well during detection.
Buffer 1: 50 mM Tris-HCl pH 6.5, 5 mM magnesium chloride (magnesium chloride), 10 μM valinomycin (valinomycin).
Buffer 2: 50 mM Tris-HCl pH 6.5, 5 mM magnesium chloride (magnesium chloride), 10 μM valinomycin (valinomycin), 20 mM KCl.
Homogenization buffer: 10 mmol/L Tris-HCl, pH 6.8, 0.25M sucrose (sucrose), 1 mmol/LEDTA.
7.5% Ficoll layering solution: homogenization buffer+7.5% (W/W) (Ficoll 400).
3.1.H^+/K^+ATPase enzyme extraction
(1) The stomach tissue of the rabbit was separated, and the blood was washed with tap water, food residue.
(2) The fundus portion was thoroughly washed with pre-cooled NaCl solution to remove surface mucus.
(3) The stripped mucosa was filled into a sample bag or a 50 ml centrifuge tube, and quickly freezing in a liquid nitrogen tank.
(4) The tissue was removed, minced with surgical scissors, and a pre-cooled homogenization buffer (4 ml/g tissue) was added and homogenized in a tissue homogenizer for 2 to 10 minutes.
(5) After homogenization, if there were larger tissue particles, they could be removed by centrifugation (600 g, 10 min), and then the supernatant was transfered to a clean centrifuge tube. After centrifugation at 20000 g for 30 minutes, then the supernatant was transferred to a clean centrifuge tube at 100000 g for 90 minutes, and the precipitate was collected.
(6) Resuspending the precipitate with homogenization buffer, blowing uniformly, adding 7.5% Ficoll layering solution at equal ratio, centrifuging at 100000 g for 90 minutes, and collecting the precipitate.
(7) Resuspending the precipitate with homogenization buffer, blowing uniformly, and the protein concentration was measured by Bradford. Freezing in tubes at −80° C. for later use.
3.2. H+/K+ATPase activity experiment
(1) Adding 35 μl of reaction buffer to each experimental well, and then adding 35 μl of buffer 1.
(2) Adding 5 μl buffer 1 containing 10% DMSO to the whole enzyme and buffer well.
(3) Adding 5 μl of 10× compound working solution to the compound well and mixing well.
(4) Adding 5 μl of buffer 1 to the buffer well.
(5) Adding 5 μl of 10× enzyme working solution to the remaining wells, mixing and incubating at 37° C. for 30 minutes.
(6) Adding 5 μl of 10× ATP working solution to all experimental wells, mixing and incubating at 37° C. for 20 min.
(7) Adding 15 μl MLG chromogenic solution to all experimental wells, and uniformly mixing and incubating at room temperature for 5-30 min.
(8) The reading number of 620 nm was detected by an M5 instrument.
The inhibition rate is calculated with the following formula:
Inhibition rate (IC50)=[OD (sample well)-OD (full enzyme well containing potassium chloride)]/[(OD (full enzyme well containing potassium chloride)−(OD (full enzyme well without potassium chloride)]×100%
What is called IC50 is the concentration needed to halve the response being measured. A lower IC50 goes with greater potency. In turn, `Cc1ccc(Nc2cccc(Cn3nc4c(c3-c3ccccc3F)CN(C)C4)c2)c(Cl)n1` [Example 2, 2-chloro-N-(3-((3-(2-fluorophenyl)-5-methyl-5,6-dihydropyrrolo[3,4-c]pyrazol-2(4H)-yl)methyl)phenyl)-6-methylpyridin-3-amine] registered an IC50 of 669 nM.
For `CN1Cc2nn(Cc3cccc(Nc4cc[nH]c(=O)n4)c3)c(-c3ccccc3F)c2C1` [Example 4, 4-((3-((3-(2-fluorophenyl)-5-methyl-5,6-dihydropyrrolo[3,4-c]pyrazol-2(4H)-yl)methyl)phenyl)amino)pyrimidin-2-(1H)-one], the IC50 worked out at 729 nM.
In turn, `COc1ccc(Nc2cccc(Cn3nc4c(c3-c3ccccc3F)CN(C)C4)c2)c(Cl)n1` [Example 1, 2-chloro-N-(3-((3-(2-fluorophenyl)-5-methyl-5,6-dihydropyrrolo[3,4-c]pyrazol-2(4H)-yl)methyl)phenyl)-6-methoxypyridin-3-amine] returned a half-maximal inhibitory concentration (IC50) of 415 nM.
`CNc1nccc(Nc2cccc(Cn3nc4c(c3-c3ccccc3F)CN(C)C4)c2)n1` [Example 5, N4-(3-((3-(2-fluorophenyl)-5-methyl-5,6-dihydropyrrolo[3,4-c]pyrazol-2(4H)-yl)methyl)phenyl)-N2-methylpyrimidine-2,4-diamine]: the IC50 was 279 nM.
The compound `CN1Cc2nn(Cc3cccc(Nc4ccnc(N5CCOCC5)n4)c3)c(-c3ccccc3F)c2C1` [Example 6, N-(3-((3-(2-fluorophenyl)-5-methyl-5,6-dihydropyrrolo[3,4-c]pyrazol-2(4H)-yl)methyl)phenyl)-2-morpholinopyrimidin-4-amine] returned an IC50 of 2850 nM.
Regarding `CN1Cc2nn(Cc3cccc(Nc4cncc(Cl)n4)c3)c(-c3ccccc3F)c2C1` [Example 7, 6-chloro-N-(3-((3-(2-fluorophenyl)-5-methyl-5,6-dihydropyrrolo[3,4-c]pyrazol-2(4H)-yl)methyl)phenyl)pyrazin-2-amine], inhibition was half-maximal at 325 nM (IC50).
The compound `CN1Cc2nn(Cc3cccc(Nc4ccnc(Cl)n4)c3)c(-c3ccccc3F)c2C1` [Example 3, 2-chloro-N-(3-((3-(2-fluorophenyl)-5-methyl-5,6-dihydropyrrolo[3,4-c]pyrazol-2(4H)-yl)methyl)phenyl) pyrimidin-4-amine] returned an IC50 of 966 nM.
